Experimental data from patent US9271946B2, “Use of a RAR antagonist or inverse agonist for the treatment of chemotherapy and/or radiation therapy side effects” (IO Therapeutics, Inc., priority 2006, dated 2016).

Assays:
[1] = tested on: 5-FU-induced neutropenic male BDF1 mice; experiment: monotherapy and combination therapy on neutrophil recovery in 5-FU-induced neutropenic mice (Example 5); format: in vivo, mouse
Method: VTP194310 DMSO Stock solution was made by weighing out VTP194310 and dissolving it in DMSO (25 mg/1.33 ml DMSO).
The Vehicle solution was made by mixing 39.2 ml Corn Oil+0.8 ml DMSO.
The 3.0 mg/kg VTP194310 solution was made by mixing 39.2 ml Corn Oil+0.8 ml VTP 194310 DMSO Stock solution.
The 150 mg/kg 5-FU solution was made by weighing out 187.5 mg 5-FU and mixing it with 10 g saline.
The 10 μg/kg PEG-G-CSF solution was made by diluting 6 mg/ml stock with PBS.
Male BDF1 mice (C57Bl×DBA2), 9 weeks old, DOB: 26 Jun. 2006) were used in this experiment.
Each group of mice were treated with 150 mg/kg 5-FU intravenously on Day 0, vehicle or VTP194310 orally by gavage at 3 mg/kg/day on Days 2 to 4, and/or subcutaneously with PEG-G-CSF at 10 μg/kg on Days 5, 6, or 7 according to the regimens listed in the table. The mean numbers of total white blood cells (WBC), neutrophils, lymphocytes, red blood cells (RBC) and platelets and standard error (SE) of data obtained for each treated group are shown in FIG. 6.

[2] = tested on: S. aureus 29213 infection in leukopenic female BDF1 mice; experiment: protective effect against S. aureus infection in leukopenic mice (Example 3); format: in vivo, mouse
Method: S. aureus 29213 obtained from American Type Culture Collection (ATCC) (Rockville, Md.) was used to induce infections in leukopenic female BDF1 mice (20-22 g). S. aureus were cultured at 37° C. in Tryptic Soy broth until the mid-logarithmic phase of growth (optical density at 600 nm=0.3), harvested, and washed with PBS. The number of bacteria was enumerated by serial dilution with PBS, plating onto blood agar, and counting colony-forming units (CFU) 48 hours after incubation at 37° C. The suspension was adjusted to […].
Mice were rendered leukopenic by i.p. injection of CPM at 200 mg/kg. A lethal dose (LD) of S. aureus was determined by intravenous injections of 1×10^3 to 1×10^8 CFU to groups of 10 mice 4 days after CPM treatment. 10-day survivors were enumerated, and the LD95 of S. aureus was calculated by Probit analysis. Treatment with VTP 194310 (at 1 mg/kg) was started one day before CPM and continued for 3 more days. Four days after CPM, the animals were infected intravenously with 4.1 and 2.5×10^6 CFU of S. aureus in 200 μl of PBS. Surviving animals were recorded daily for 14 days after the challenge. […] All experiments were performed in compliance with relevant laws and institutional guidelines, and were approved by the Animal Care and Use Committee.

RARγ = target: T1, RARγ (Homo sapiens, UniProt P13631); experiment: binding to RARγ
T1 sequence (P13631 1-454): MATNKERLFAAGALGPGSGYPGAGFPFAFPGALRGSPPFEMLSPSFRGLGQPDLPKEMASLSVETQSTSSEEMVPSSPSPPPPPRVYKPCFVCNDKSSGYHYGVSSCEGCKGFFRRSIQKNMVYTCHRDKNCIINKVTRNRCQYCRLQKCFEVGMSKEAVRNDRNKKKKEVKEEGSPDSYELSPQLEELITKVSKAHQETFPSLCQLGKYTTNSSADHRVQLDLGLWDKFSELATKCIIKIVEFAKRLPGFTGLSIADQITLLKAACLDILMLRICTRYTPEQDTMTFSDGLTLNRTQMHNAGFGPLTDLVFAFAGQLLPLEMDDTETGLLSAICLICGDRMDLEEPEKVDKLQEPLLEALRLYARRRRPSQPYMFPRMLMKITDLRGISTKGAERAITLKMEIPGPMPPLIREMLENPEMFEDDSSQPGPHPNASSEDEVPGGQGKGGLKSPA

RARβ = target: T2, RARβ (Homo sapiens, UniProt P10826); experiment: binding to RARβ
T2 sequence (P10826 1-455): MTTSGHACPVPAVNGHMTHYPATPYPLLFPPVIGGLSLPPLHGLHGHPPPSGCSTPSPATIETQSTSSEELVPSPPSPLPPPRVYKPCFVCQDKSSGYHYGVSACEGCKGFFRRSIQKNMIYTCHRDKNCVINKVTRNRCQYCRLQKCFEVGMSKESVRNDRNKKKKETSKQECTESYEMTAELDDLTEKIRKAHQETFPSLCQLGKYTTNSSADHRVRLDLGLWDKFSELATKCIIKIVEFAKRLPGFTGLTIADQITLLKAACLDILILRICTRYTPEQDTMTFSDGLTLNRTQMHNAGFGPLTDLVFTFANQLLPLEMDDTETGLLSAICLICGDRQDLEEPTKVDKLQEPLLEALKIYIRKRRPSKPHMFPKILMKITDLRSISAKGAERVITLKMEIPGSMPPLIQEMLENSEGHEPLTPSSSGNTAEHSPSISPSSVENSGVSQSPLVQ

## CCc1ccc(C2=CC(C)(C)Sc3ccc(C#Cc4ccc(C(=O)O)cc4)cc32)cc1 [VTP 194310, 4-[[4-(4-ethylphenyl)-2,2-dimethyl-(2H)-thiochromen-6-yl]-ethynyl]-benzoic acid]
[1]; 3 mg/kg/day Days 2 to 4 vs PEG-G-CSF 10 μg/kg Days 5, 6, or 7
  effectiveness in enhancing neutrophil recovery compared to PEG-G-CSF: more effective than PEG-G-CSF
[1]; monotherapy, 5-FU 150 mg/kg i.v. Day 0, VTP 194310 3 mg/kg/day oral Days 2 to 4, PEG-G-CSF 10 μg/kg s.c. Day 5, 6, or 7
  recovery of neutrophils relative to control: improved the recovery of neutrophils
[2]; Logrank p=0.0031 (4.1×10^6 CFU), p<0.0001 (2.5×10^6 CFU)
  protective effect against S. aureus infection compared to controls: very significant protective effect
[2]; day 10, each of the doses of S. aureus (4.1 and 2.5×10^6 CFU), 1 mg/kg days −1 to 2
  mice alive: 83%
[2]; day 14, 2.5×10^6 CFU S. aureus
  mice alive: 67%
[2]; day 14, higher dose of bacteria (4.1×10^6 CFU)
  mice alive: 42%
RARγ
  Ki: 5 nM
RARβ
  Ki: 2 nM
